Series [1] is described as follows: Influence of additives on sludge pH. The class given is physicochemical. Conditions: for sludge pH: 0.5 g of each additive on about 5 g sludge. How it is done: The influence of different additives on the sludge pH was also evaluated.
Influence of Additives on Sludge PH
Treatments with urea, CaSO4, CaO

Series [2] can be described thus: Odor reduction of municipal sludge, headspace GC-MS and odor. The arrangement: reducing odor / Relative reduction of peak area: concentration or dose not given beside the values. As to conditions: for reducing odor: oxidizing agents, general statement. On the procedure:
Effectiveness of the treatments was evaluated through the GC-MS analysis of the treated and untreated sludge. Sludge (5.0 g) was placed into a 44 ml vial. After heating to 60.0° C. for 5.0 minutes a probe of gas was taken from the vial (0.5 ml) and injected into the GC-MS.
Hewlett-Packard (HP) GC 5890 coupled with an HP 5971 mass-spectrometer. The system incorporates an electron beam as an ion source. Ions are filtered through a glass with silver-coated quadruples.
A DB5MS capillary chromatographic column is used and the MS is tuned with PFTBA in a Scan Mode (tune file: BFB.U).
For further characterization the peak area of the 94-ion was selected. The calibration was performed using dimethyldisulfide. A calibration curve is presented in the attached data.
In the first series, 6.00 g (±0.05) of the sludge with the addition of 10.0 ml of distilled water was used. For the treatment, we used potential oxidizers such as KNO3 and H2SO4 in different combinations.
In the second series we used 5.00 g (±0.01) of the sludge with no dilution. For the treatment we used additions of hydrogen peroxide (30%) −0.5 ml, sulfuric acid (98%), −0.5 ml, a combination of hydrogen peroxide and 0.5 ml and sulfuric acid 0. ml, ammonia (54%) −0.5ml, calcium hypochlorite −0.5 g.
The effectiveness of the additions is evaluated through decreasing the area of 94-ion signal with retention time around 1.94 minutes. We also investigated the influence of time.
The samples of the sludge (approximately 5.0 g) were placed into the vials and treated with additions of CaOCl2 at a temperature of 60.0° C.
The reproducibility of the treatment with calcium hypochlorite Ca(OCl)2 (CHC) on sludge was investigated. In all experiments, 5.0 g of sludge in a special vial was treated with an addition of percent of weight of odor reducer (0.05 g). After heating to 60.0° C. for 5.0 minutes, a sample of vapor over the sludge was taken and injected into the GC/MS. Total Ion Chromatograph signal with retention time […] were used for evaluation of the treatment corresponding to dimethylsulfide).

Several values for one entry are separate records, joined by “and”; a condition that tells them apart may be missing. Equal entries are not always repeated.

With `[O]=[Ca]` [CaO, calcium oxide], the “sludge pH” value is 11.5 and 11.65 in series [1]; 11.8 in series [1] (listed as calcium oxide).
As to `[Ca+2].[O-]Cl.[O-]Cl` [CaOCl2, calcium hypochlorite], in series [2] (against untreated sludge 376025), the “Relative reduction of peak area” value is 97.98% and 96.16% and 98.54% and 96.59% and 98.86% and 99.03% and 99.17% and 99.47%. Moreover, the “Average Relative Reduction of the peak area” value in series [2] (eight replicates, confidence interval 95%) was 98.23% and 98.23±0.85%. In addition, the reducing odor in series [2] is reported as 98%. Also, the “effect on sludge pH” value in series [1] is “does not affect the sludge pH”.
For the molecule `O=S(=O)([O-])[O-].[Ca+2]` [CaSO4, Calcium sulfate], in series [1], the “effect on sludge pH” value is on record as “does not change the sludge pH”; the “sludge pH” value is 6.3 and 6.25.
On to `NC(N)=O` [Urea], for which the “sludge pH” value in series [1] was 8.32 and 8.45.
For `[K+].[O-]Cl` [potassium hypochlorite], the reducing odor in series [2] amounted to 98%.

The record behind these values is US20040177664A1, “Production of a high quality organic-based fertilizer” (priority 2003, published 2004).
